Converted amounts (≈) assume the structure as drawn. A value given as a limit tells only on which side of the number the result lay.

The values below come from US5466687A, “Arylidene-1-azacycloalkanes and arylalkyl-1-azacyclo-alkanes, their salts, medicaments containing these compounds and their use, and processes for their preparation” (priority 1992, dated 1995).

The subject of data set [1] is Rhodotorula rubra 49. The experiment in a line: Fungistatic activity, serial dilution test. The following applies: 2 to 4 days at 26° C. The format is cell-based. On the procedure: (§1) VI. Determination of fungistatic activity The fungistatic activity was determined by means of the serial dilution test (microtitre system). Sabouraud broth was used as the nutrient medium. The inoculum was approximately 10^4 to 10^5 CFU/ml (CFU=colony-forming units); the incubation time was 2 to 4 days at 26° C. The minimum inhibitory concentration (MIC), i.e. the lowest concentration which no longer allowed visible growth, and the lowest concentration at which a decrease in growth of the test microorganism occurred in comparison with a control were determined. The above mentioned compound I was tested.

Data set [2] has as its system Penicillium notatum CBS 19746. The data set can be described thus: Fungistatic activity, serial dilution test. Particulars: Penicillium chrysogenum, CBS19746, 2 to 4 days at 26° C. The format is cell-based. On the procedure:
as §1

The subject of data set [3] is Aspergillus niger ATCC 16404. The data set can be described thus: Fungistatic activity, serial dilution test. Particulars: ATCC16404, 2 to 4 days at 26° C. The format is cell-based. On the procedure: as §1
For data set [4], the system named is Trichophyton mentagrophytes ATCC 9129. The data set can be described thus: Fungistatic activity, serial dilution test. The format is cell-based. The following applies: ATCC9129, 2 to 4 days at 26° C. On the procedure:
as §1

Data set [5] deals with Sacc. carlsbergensis ATCC 9080. The experiment in a line: Fungistatic activity, serial dilution test. The format is cell-based. The following applies: Saccharomyces pastorianus, ATCC9080, 2 to 4 days at 26° C. The protocol: as §1
The subject of data set [6] is Candida albicans ATCC 10231. The data set can be described thus: Fungistatic activity, serial dilution test. The format is cell-based. The following applies: ATCC10231, 2 to 4 days at 26° C. On the procedure: as §1
Data set [7] deals with human hepatoma cells (HEP-G2). The data set can be described thus: Inhibition of 14C-acetate incorporation in digitonin-precipitatable steroids in HEP-G2 cells. Particulars: Homo sapiens. The format is cell-based. On the procedure: I. Measurement of the inhibition of ^14 C-acetate incorporation in digitonin-precipitatable steroids:
After 3 days of culture, human hepatoma cells (HEP-G2) are stimulated for 16 hours in cholesterol-free medium. The substances to be tested (dissolved in dimethyl sulphoxide, final concentration 0.1%) are added during this stimulation phase. After the addition of 200 μmol/l of 2-^14 C-acetate, the mixture is then reincubated at 37° C. for a further 2 hours.
The cells are detached and the sterol esters are hydrolyzed and, after extraction, sterols are precipitated using digitonin. The ^14 C-acetate incorporated into digitonin-precipitatable sterols is determined by scintillation measurement.
The investigation of the inhibitory action was carried out at test concentrations of 10^-7 mol/l and 10^-8 mol/l. The test results of the following compounds A to AG of the general formula I are indicated at these test concentrations by way of example: […]

Data set [8] relates to 2,3-epoxysqualene-lanosterol cyclase. The experiment in a line: In vivo effect in the rat after oral administration: 2,3-epoxysqualene level in plasma. Details: species or system rat (male Wistar). The following applies: 5 hours after administration. The protocol:
II. Measurement of the in vivo effect in the rat after oral administration
The inhibition of the enzyme 2,3-epoxysqualene-lanosterol cyclase causes an increase in the 2,3-epoxy-squalene level in the liver and plasma. Therefore, the amount of 2,3-epoxysqualene formed therefore serves as a direct measure of the effectiveness in the whole animal. The determination is carried out by the following method:
The test substance suspended in 1.5% strength aqueous methylcellulose is administered via stomach tube to male Wistar rats (160-190 g body weight). 5 hours after administration, blood is obtained retroorbitally from the venous plexus. Plasma is extracted by the method of Bligh and Dyer (Canad. J. Biochem. Physiol. 37, 912, [1959]), purified by means of a precolumn and then analyzed by means of HPLC. The peaks obtained are identified and quantified by means of calibration substances. An internal standard is used to check the reproducibility of the results.
The investigations were carried out using concentrations of 0.1 and 1.0 mg/kg. The results for the above mentioned substances A to M are compiled in the following Table by way of example: […]

The nature of data set [9]: Toxic effects in the mouse after oral administration. The format is in vivo. Particulars: oral 100 mg/kg, once daily for 4 days. The source says: The compounds A to I appeared to be non-toxic at the curative dose.
Setting [10] is: read-out: Decrease in growth (lowest concentration).

With `O=C(c1ccc(Cl)cc1)N1CCC(Cc2ccc(C3=NCCO3)cc2)CC1` [I, 1-(4-chlorobenzoyl)-4-[4-(2-oxazolin-2-yl)benzyl]piperidine], the MIC in [1] was 128 µg/mL (≈ 334 µM); in data set [2], 128 µg/mL (≈ 334 µM); in [3], more than 1020 µg/mL; in data set [4], 512 µg/mL (≈ 1340 µM); in [5], 128 µg/mL (≈ 334 µM); in data set [6], 128 µg/mL (≈ 334 µM). Further, the minimal effective concentration in data set [1] (setting [10]) stood at 32 µg/mL; in [2] (setting [10]) it was 64 µg/mL; in [3] (setting [10]), 128 µg/mL; in [5] (setting [10]) it was 64 µg/mL; in data set [6] (setting [10]) it was 64 µg/mL. Further, the percent change in 14C-acetate incorporation into sterols at 0.1 µM in data set [7] (HepG2, 10^-7 mol/l) was -89%. The percent change in 14C-acetate incorporation into sterols at 0.01 µM in data set [7] (HepG2, 10^-8 mol/l) is -75%. The figures for the “2,3-Epoxysqualene concentration in plasma (rat)” value in data set [8] (0.1 mg/kg oral) and in [8] (1.0 mg/kg oral) were 3.41 µg/mL and 8.41 µg/mL, respectively. Also, the “toxic effects in the mouse” value in data set [9] is on record as “no toxic effects”.
